Experiments:
IgMMAY = assay: Quantitative precipitin inhibition, IgMMAY + Klebsiella K21; type: binding, human; settings: for inhibition of precipitation of IgMMAY by Klebsiella K21: 25 μl 1:5 dilution IgMMAY + 1.6 μg Klebsiella K21, Fig. 3B; for times more active than pyruvate in inhibiting the Klebsiella K21 precipitin reaction: IgMMAY
anti-Klebsiella K11 = settings: cited from earlier work
IgMWEA [1] = assay: Quantitative precipitin inhibition, IgMWEA + Bacto agar 20C extract; type: binding, human; settings: for times more active than sodium pyruvate on a molar basis: inhibiting precipitation of IgMWEA by agar; for inhibition of precipitation of IgMWEA by agar: even at 100 μmol inhibitor
IgMWEA [2] = assay: Quantitative precipitin reaction of purified IgMWEA with polysaccharides; type: binding, human; settings: ~8 μg N purified IgMWEA, total volume 350 μl, Fig. 1A
IgMWEA [3] = assay: Precipitin inhibition, IgMWEA-Helix pomatia galactan; type: binding, human; settings: data not shown

Row | Compound | inhibition of precipitation of IgMMAY by Klebsiella K21 (IgMMAY) | precipitin reaction with IgMWEA (IgMWEA [2]) | other results
1 | CO[C@H]1O[C@@H]2CO[C@@](C)(C(=O)O)O[C@@H]2[C@H](O)[C@H]1O (single isomer, unassigned) [methyl 4,6pyDGalα S isomer] | inactive |  | inhibition of Klebsiella K11-anti-Klebsiella K11 (anti-Klebsiella K11): does not inhibit
2 | CO[C@H]1O[C@@H]2CO[C@@](C)(C(=O)O)O[C@@H]2[C@H](O)[C@H]1O (single isomer, unassigned) [methyl 4,6pyDGalα R isomer] |  |  | times more active than sodium pyruvate on a molar basis (IgMWEA [1]): > 20 times; times more active than pyruvate in inhibiting the Klebsiella K21 precipitin reaction (IgMMAY): 150 times
3 | O=C[C@H](O)[C@@H](O)[C@@H](O)[C@H](O)COP(=O)(O)O [D-galactose-6-phosphate] | no inhibition |  | 
4 | COC1OC(CO)C(O)C(O)C1O (stereo not drawn) [methyl β-DGal, methyl /~-DGal] | no inhibition |  | inhibition of precipitation of IgMWEA by agar (IgMWEA [1]): no inhibition
5 | heparin |  | failed to precipitate | 
6 | Larch arabinogalactan |  | inactive | 
7 | CC(=O)C(=O)O [sodium pyruvate, Sodium pyruvate] | better than lactate and propionate |  | inhibition of precipitin reaction of IgMWEA-Helix pomatia galactan (IgMWEA [3]): inhibited
8 | xanthan gum |  | failed to precipitate | 
9 | keratosulfate |  | failed to precipitate | 
10 | O=P(O)(O)O[C@H]1O[C@H](CO)[C@H](O)[C@H](O)[C@H]1O [D-galactose-1-phosphate] | no inhibition |  | 
11 | CO[C@@H]1O[C@@H]2COC(C)(C(=O)O)O[C@@H]2[C@H](O)[C@H]1O (single isomer, unassigned) [methyl 4,6pyDGalβ R isomer, methyl 4,6-O-(1-carboxyethylidene) ~-o-galactopyranoside] |  |  | times more active than sodium pyruvate on a molar basis (IgMWEA [1]): > 20 times; times more active than pyruvate in inhibiting the Klebsiella K21 precipitin reaction (IgMMAY): 150 times
12 | agarose |  | inactive | 
13 | dextran sulfate |  | did react | 
14 | CC(O)C(=O)[O-].[Na+] (stereo not shown) [sodium lactate] |  |  | inhibition of precipitin reaction of IgMWEA-Helix pomatia galactan (IgMWEA [3]): inactive
15 | O=C[C@H](O)[C@@H](O)[C@@H](O)[C@H](O)CO [DGal, D-galactose] | Neither DGal, its methyl a- and/~-glycosides, nor any of the other neutral sugars tested gave any inhibition |  | inhibition of precipitation of IgMWEA by agar (IgMWEA [1]): no inhibition
16 | CO[C@H]1O[C@H](CO)[C@H](O)[C@H](O)[C@H]1O [methyl α-DGal, methyl a-DGal] | no inhibition |  | inhibition of precipitation of IgMWEA by agar (IgMWEA [1]): no inhibition
17 | CCC(=O)[O-].[Na+] [sodium propionate] |  |  | inhibition of precipitin reaction of IgMWEA-Helix pomatia galactan (IgMWEA [3]): inactive
18 | O=P(O)(O)O[C@H]1O[C@H](CO)[C@@H](O)[C@H](O)[C@H]1O [D-glucose-1-phosphate, D-glucose-l-phosphate] | no inhibition |  | 

From article PMC2185977 (The Journal of Experimental Medicine, 1980)
